Series [1] has as its system HeLa cells. Kind of series: Subcellular localisation by confocal laser-scanning microscopy. It is filed as cell-based, human. To be noted: 1 × 10^−5 M, 1 h. The method, then:
Cells, grown on eight-well chamber slides (Nunc), were incubated in the dark at 37°C with 1 × 10^−5 M ADPM01 for 1 h. The medium was removed and the cells then treated with 250 nM MitoTracker Green (Molecular Probes) or 100 nM ER Tracker Blue (Molecular Probes) for 25 min. Prior to visualisation, excess probe was washed off by rinsing in PBS four times and cells were fixed in 3.7% formaldehyde/PBS. Cells were mounted as above and image analysis was performed using a LSM510 META confocal laser-scanning microscope (Zeiss) equipped with an × 40 numerical aperture 1.0 objective, with a pinhole of 100 μm in diameter being used to capture each image at a resolution of 512 × 512 pixels. MitoTracker Green was excited by a 488 nm argon laser and ER Tracker Blue was excited by a UV laser (364 nm), while ADPM01 was excited by a 543 nm helium neon laser. For simultaneous detection of MitoTracker Green and ADPM01, a 560 nm long pass filter was used in channel 1 (red) for ADPM01, while a 505–530 nm band pass filter was used in channel 2 (green) for MitoTracker Green. For dual detection of ER Tracker Blue and ADPM01, a long pass filter of 560 nm was used in channel 1 (red) for ADPM01 and a 385–470 nm band pass filter was used in channel 2 (blue) for ER Tracker Blue. […]

Series [2] relates to MRC5 cells. The series is described as follows: MTT cell viability assay under hypoxic conditions (1% oxygen). It counts as cell-based, human. To be noted: MRC5, hypoxia 1% oxygen; for EC50: Homo sapiens. On the procedure: (§1) Cells were exposed to low oxygen conditions in a hypoxia chamber (Coy Labs). Exponentially growing cells plus media were equilibrated in the hypoxia chamber for 24 h. The hypoxia chamber consisted of an airtight glove box, with the atmosphere continuously monitored by an oxygen analyser. An oxygen concentration of 1% was maintained throughout the chamber, with the balance comprised of 5% CO2, nitrogen and water vapour from a humidified chamber.
(§2) Cells were seeded in 96-well flat-bottomed microtitre plates (5000 cells well^−1) and incubated at 37°C in a 5% CO2 incubator for 24 h. Cells were then incubated with varying concentrations of photosensitiser (1 × 10^−9 to 1 × 10^−4 M) in the dark for 3 h at 37°C. The ADPM compound-laden medium was then removed, the cells were washed with PBS and fresh culture medium was added to each well. This was followed by light irradiation with a broad-spectrum red light source (600–750 nm) via a Waldmann PDT1200L light delivery system. For this study, fluences (light exposures) of either 8 or 16 J cm^−2, at a dose rate of 80 mW cm^−2, were used. Following irradiation, the cells were incubated for a further 48 h before being assessed for cell viability by a standard MTT assay (Sigma). The subsequent colour change produced by viable cells was quantified using a plate reader (VICTOR^2 1420 multilabel HTS counter, Wallac). […] The dark toxicity of each compound was also assessed.
(§3) For cell viability experiments performed under hypoxic conditions, cells were cultured in a hypoxia chamber as described above. Varying concentrations of ADPM compounds were made using medium equilibrated within the hypoxic environment. After 3 h, the medium containing photosensitiser was removed, the cells were washed with PBS to remove excess compound and fresh, equilibrated medium was added to each well. This was followed by light irradiation under hypoxic conditions with the broad-spectrum red light source as before.
(§4) Prism ([…]) was used to graph the data obtained from the MTT assays and the uptake/clearance experiments. This program allows nonlinear regression analysis and the generation of sigmoidal dose–response curves. Prism also automatically calculates EC50 values. Statistical analysis was performed using the ANOVA test (Prism). Significant differences were detected using the Bonferroni multiple comparison test. P-values <0.05 were considered statistically significant.
On the technique in general: Tetrazolium assays rely on reduction of a dye to a coloured formazan, in cell work by metabolically active cells.

For series [3], the system named is HeLa cells. Described as above. It counts as cell-based, human. To be noted: hypoxia 1% oxygen; for EC50: Homo sapiens. On the procedure:
as §1, §2, §3, §4

The test system of the next series is SW480 cells. The series is described as follows: Colorimetric survival (MTT) assay after photo-irradiation, normoxia. It counts as cell-based. To be noted: Homo sapiens, SW480, 3 h incubation. The method, then:
All cell lines unless otherwise stated were obtained from the American Type Culture Collection. HeLa, MRC5, HT-1080, MDA-MB-231, MCF-7 and T47-D cells were cultured in minimum essential medium (MEM) supplemented with 10% (v v^−1) foetal calf serum (FCS), 1% (v v^−1) non-essential amino acids, 50 U ml^−1 penicillin, 50 μg ml^−1 streptomycin, 20 mM HEPES and 1% (v v^−1) L-glutamine (Gibco-BRL). SW480, SW620 (obtained from Professor D Croke, Royal College of Surgeons, Dublin), A2780 and A2780cp70 cells (Obtained from Professor R Brown, Cancer Research UK, Beatson Laboratories, Glasgow) were cultured in RPMI-1640 medium plus the above-mentioned supplements. All cells were maintained in 5% CO2 (v v^−1) and 21% O2 (v v^−1) at 37°C unless otherwise stated.
as §2, §4

Series [4] concerns MRC5 cells. The series is described as follows: Cellular uptake and clearance (fluorescence microscopy). It counts as cell-based, human. To be noted: MRC-5, 1 × 10^−5 M for 3 h, then drug removed. The method, then:
(§5) Cells were seeded at 30 000 cells well^−1 in chamber slides and allowed to adhere for 24 h. For the uptake studies, ADPM01 (1 × 10^−5 M) was then added to each chamber and incubated at 37°C in the dark. Following appropriate incubation periods (5 min–6 h), the cells were washed four times with media to remove all free photosensitisers. The cells were then fixed with 3.7% formaldehyde/PBS for 15 min at 37°C, after which the cells were washed twice with PBS. Mounting fluid (Vectashield) and a coverslip were then placed on each slide. […] In this case, the cells were fixed at various time points (15 min – 24 h) after removal of the drug. The slides were then viewed using an Axio fluorescent microscope (Zeiss). A DAPI filter (Band pass 356) was used to accurately count the number of cells in each field of view and a rhodamine filter (Long pass 590) was used to quantify fluorescence from ADPM01. LabWorks version 4.0 (Bioimaging Systems) was used to calculate the average fluorescence intensity of ADPM01 per cell.
as §4

Series [5] has as its system HeLa cells. The description is as above. It counts as cell-based, human. The method, then: as §5, §4
Setting [6] is: 0 J cm^−2, read-out: EC50 (M) (dark).
The mark [7] stands for this setting: 8 J cm^−2, read-out: EC50 (M) (8 J cm^−2).
Where [8] appears, read: 16 J cm^−2, read-out: EC50 (M) (16 J cm^−2).

Where two headings read alike, the source gives them in different places. Some results are limits rather than exact numbers.

The record followed here is publication PMC2362044, “A potent nonporphyrin class of photodynamic therapeutic agent: cellular localisation, cytotoxic potential and influence of hypoxia” (British Journal of Cancer, 2005).

As for `F[B-]1(F)n2c(-c3ccccc3)cc(-c3ccccc3)c2N=C2C(c3ccccc3)=CC(c3ccccc3)=[N+]21` [ADPM01], the “co-localisation with endoplasmic reticulum (ER Tracker Blue)” value in the series with HeLa cells [1] is listed as “more striking co-localisation”. Besides, the EC50 in the series on MRC5 cells [2] (setting [6]), with MRC5 cells [2] (setting [7]), with MRC5 cells [2] (setting [8]), with HeLa cells [3] (setting [6]), with HeLa cells [3] (setting [7]) and in the series with HeLa cells [3] (setting [8]) was more than 0.0001 M each time. Also, the EC50 (in general, the concentration needed to bring the measured effect to its halfway point) with SW480 cells (setting [6]) was more than 0.0001 M; in the series with SW480 cells (setting [7]), 7.6e-06 M; in the series on SW480 cells (setting [8]), 8e-07 M. For the same compound, the “efficacy (light-induced activity) at 1% oxygen level vs normoxia” value with MRC5 cells [2] and with HeLa cells [3] was “completely ablated” in each case. In addition, in the series on MRC5 cells [4], the “retention 3 h post-withdrawal (clearance)” value came out at 74%. Further, the “retention at 3 h post-withdrawal (clearance)” value in the series on HeLa cells [5] (1 × 10^−5 M for 3 h, then drug removed) is on record as 42%. The “cellular uptake, accumulated by 3 h” value in the series with HeLa cells [5] (1 × 10^−5 M, 37°C in the dark, 6 h period) is on record as more than 90%.

As to `COc1ccc(C2=[N+]3C(=Nc4c(-c5ccccc5)c(Br)c(-c5ccc(OC)cc5)n4[B-]3(F)F)C(c3ccccc3)=C2Br)cc1` [ADPM06], the concentration for a half-maximal effect (EC50) is more than 0.0001 M with MRC5 cells [2] (setting [6]); 7.1e-06 M in the series with MRC5 cells [2] (setting [7]); 1.6e-06 M in the series on MRC5 cells [2] (setting [8]); more than 0.0001 M in the series with HeLa cells [3] (setting [6]); 6.1e-06 M in the series with HeLa cells [3] (setting [7]); 1.5e-06 M in the series on HeLa cells [3] (setting [8]). In addition, the results for the EC50 with SW480 cells (setting [7]) and in the series with SW480 cells (setting [8]) were 5.4e-06 M and 4.2e-08 M, respectively. Besides, the “efficacy (light-induced activity) at 1% oxygen level vs normoxia” value in the series on MRC5 cells [2] and in the series on HeLa cells [3] was “only a partial reduction in light-induced activity” each time.
